Reference: patent publication US20230158057A1, “COMPOSITIONS AND METHODS FOR THE TREATMENT OF PAIN” (Duke University, priority 2020, published 2023)
“Also recorded” adds a separate entry of the source.

Legend:
naïve mice [1] = assay: Von Frey testing of mechanical thresholds in naïve mice (WT and knockout); type: in vivo, mouse; conditions: for mechanical sensory thresholds (von Frey): i.t. injection
Description: (§1) Reflexive-based sensory testing in mice: All behavioral testing in mice was performed in a specialized humidity- and light-controlled mouse behavior facility maintained at 21-24° C., with testing conducted between the hours of 8:00-16:00. Mice were habituated to the testing environment for at least 2 days prior to baseline testing. All tests were performed by an experimenter who was blinded to experimental conditions, including genotypes and drug treatment. For multi-day experiments using STING agonists, mice were tested in the same room at approximately the same time each day. To measure mechanical sensitivity, mice were confined to individual chambers with non-transparent borders on an elevated mesh rack, preventing mice from visualizing or interacting with one another during the testing period. Mouse hindpaws were stimulated with a series of von Frey filaments with logarithmically increasing stiffness (0.02-2.56 g, Stoelting), which was applied perpendicularly to the central plantar surface. We determined the 50% paw withdrawal threshold using the up-down method. […] To test cold sensitivity, mice were again placed on an elevated metal mesh floor in isolated chambers, and a ˜20 μl acetone drop was applied to the central plantar surface of the mouse hindpaw using a pipette.
For the experiments utilizing i.t. 2′3′-cGAMP and 3′3′-cGAMP complexed with Lipofectamine 2000 (ThermoFisher, 11668), 10 μg 2′3′-cGAMP or 3′3′-cGAMP was incubated at room temperature for 30 minutes in sterile PBS with 3 μl Lipofectamine 2000. In this case, the vehicle control was 3 μl Lipofectamine 2000 in PBS, as in a previous study which used this approach. […] For experiments utilizing rabbit anti-IFN-α or -β neutralizing antibodies, a polyclonal rabbit IgG antibody served as the control. Antibodies were utilized in vivo at 300 ng/mouse or in vitro at 300 ng/ml. Paclitaxel was administered via repeated i.p. injections every other day for 4 days at a dose of 2 mg/kg. For the whole mount DRG recordings, young mice (4-6 weeks) were administered a single 6 mg/kg dose one week prior to the experiment. All intrathecal injections were performed under brief anesthesia with 2-2.5% isoflurane. Drugs administered by intrathecal injection were preceded by shaving a small area on the back corresponding to the injection site, followed by spinal puncture using a 30-gauge needle between the L5-L6 levels to deliver a maximum of 5-10 μl into the cerebrospinal fluid. Successful intrathecal injection was always confirmed by a brisk tail-flick upon delivery. For the experiments involving intraplantar (i.pl.) injection, IFN-α was dissolved in sterile saline and administered at the concentrations indicated in the figures in a total volume of 20 μl, administered under 2-2.5% isoflurane anesthesia to minimize animal stress. For these experiments, vehicle (saline) or IFN-α were slowly and carefully expressed into the left dorsal hindpaw of anesthetized mice and allowed to perfuse the tissue for ˜20 seconds prior to removal of the needle. […] Mechanical sensory testing was done anteriorly and care was taken to avoid Von Frey filament stimulation of the injection site.

[2] = Solubility noted at drug preparation; type: physicochemical; conditions: diluted in PBS containing 5% DMSO and 0.0625% Tween-20
Description: For the experiments utilizing i.t. 2′3′-cGAMP and 3′3′-cGAMP complexed with Lipofectamine 2000 (ThermoFisher, 11668), 10 μg 2′3′-cGAMP or 3′3′-cGAMP was incubated at room temperature for 30 minutes in sterile PBS with 3 μl Lipofectamine 2000. In this case, the vehicle control was 3 μl Lipofectamine 2000 in PBS, as in a previous study which used this approach. […] For experiments utilizing rabbit anti-IFN-α or -β neutralizing antibodies, a polyclonal rabbit IgG antibody served as the control. Antibodies were utilized in vivo at 300 ng/mouse or in vitro at 300 ng/ml. Paclitaxel was administered via repeated i.p. injections every other day for 4 days at a dose of 2 mg/kg. For the whole mount DRG recordings, young mice (4-6 weeks) were administered a single 6 mg/kg dose one week prior to the experiment. All intrathecal injections were performed under brief anesthesia with 2-2.5% isoflurane. Drugs administered by intrathecal injection were preceded by shaving a small area on the back corresponding to the injection site, followed by spinal puncture using a 30-gauge needle between the L5-L6 levels to deliver a maximum of 5-10 μl into the cerebrospinal fluid. Successful intrathecal injection was always confirmed by a brisk tail-flick upon delivery. […]

naïve mice [3] = assay: Conditioned place preference (CPP) assay in naïve mice; conditions: i.t., morphine 2 nmol, DMXAA or ADU-S100 35 nmol
Description: (§2) All mice underwent 3 d of preconditioning habituation in a temperature- and humidity-controlled room under low-light conditions between 08:00-16:00 in a two compartment CPP chamber (Med Associates Inc.). The two compartments differed by both visual and tactile cues. On the 4th day, animal behavior was video-recorded using a webcam connected to a laptop computer, and animal movement was automatically tracked for 15 minutes using the ANY-Maze software (Stoelting). […] On the conditioning day(s) (day 5 for single trial; day 5-7 for repeated trials), two pairing sessions were performed, with vehicle pairing in the AM session and drug treatment (e.g., vehicle or drug) in the PM session, separated by 4 h. In the AM session, mice always received vehicle (10 μl saline, delivered via i.t. injection under isoflurane anesthesia) and were immediately placed in their preferred CPP chamber for 2 h. […] 24 h after the completion of the pairing experiments, mice were placed in the CPP test box with access to both chambers and behavior was recorded for 15 minutes and analyzed using the ANY-Maze software for chamber preference. CPP score was calculated as the inverse of the time spent in the preferred chamber according to: [post-preference (sec)—pre-preference (sec)]. Vehicle served as a negative control for these experiments, while morphine (three trials/naïve mice) or clonidine (single trial/ongoing pain) served as positive controls.

naïve mice [4] = assay: Naloxone reversal of antinociception; type: in vivo, mouse; conditions: naloxone 10 mg/kg i.p.; morphine 2 nmol i.t., DMXAA or ADU-S100 35 nmol i.t.
Description: Following naloxone delivery, mice were tested within 15 minutes. For the experiments testing whether mice developed tolerance to the effects of STING agonists, vehicle or DMXAA (35 nmol) were administered via i.t. injection. Naïve mice received five single injections at D0, D3, D6, D9, and D12, with testing each day 4 h after injection. SNI mice received injections on two consecutive days beginning on D7 (D7 and D8) and every 48 h afterwards following the conclusion of sensory testing (D10, D12, D14, D16, and D18). Spinal cords (L4-L5) were collected for analysis of glial cell activation at D21 following SNI.

[5] = system: rhesus macaques (Macaca mulatta); conditions: comparison value; cited from earlier work
[6] = system: mice with intrafemoral Lewis lung carcinoma (LLC); assay: LLC bone cancer pain model, systemic (i.p.) treatment, behavior tests and body weight; type: in vivo, mouse
Description: Bone cancer pain model. The murine cell lines LLC1, LL/2-Luc2 or E0771 were lightly digested using 0.05% trypsin, followed by centrifugation to remove poorly digested cell clusters. Cells were then resuspended in PBS at a concentration of 1×10^8 cells/ml. The inoculation was performed as previously described (Wang, K. et al. “PD-1 blockade inhibits osteoclast formation and murine bone cancer pain.” The Journal of clinical investigation, (2020); Wang, Z. et al. “Anti-PD-1 treatment impairs opioid antinociception in rodents and nonhuman primates.” Sci Transl Med 12 (2020)). Briefly, mice were anesthetized with 4% isoflurane and the left leg was shaved and the skin disinfected with 10% povidone-iodine and 75% ethanol. A superficial incision (0.5-1 cm) was made near the knee joint, exposing the patellar ligament. […] The syringe contents were slowly injected into the femoral cavity over a 2-minute interval. To prevent further leakage of tumor cells outside of the bone cavity, the outer injection site was sealed with silicone adhesive (Kwik-Sil, World Precision Instruments, US). Animals with surgery related movement dysfunction or with outside bone tumor injection were excluded from the study. Drug treatment. […] All other reagents were dissolved in sterile saline or PBS. For experiments utilizing rabbit anti-IFN-α or -β neutralizing antibodies, a polyclonal rabbit IgG antibody served as the control. […] Behavior tests. All the behavioral tests were conducted in a blinded manner and performed during between the hours of 9:00-16:00. Animals were habituated in a light and humidity controlled testing environment for at least 2 days prior to baseline testing. For Von Frey testing, mice were confined to individual 5×5 cm boxes placed on an elevated wire grid. A blinded experimenter stimulated their hindpaws using a series of von Frey filaments with logarithmically increasing stiffness (0.02-2.56 g, Stoelting). Each filament was applied perpendicularly to the central plantar surface. The 50% paw withdrawal threshold was determined using Dixon's up-down method.

tumor-bearing femora = assay: Bone fractures of tumor-bearing femora on d17 after LLC inoculation; type: in vivo, mouse; conditions: vehicle 87.5%
Description: Development and progression of cancer-induced osteolytic bone destruction frequently leads to bone fracture, which is an important component of SREs in patients with bone metastasis and is associated with decreased overall survival. On d17 after LLC inoculation, mice were euthanized and the tumor bearing femora were collected and the distal tumor-bearing femur where bone destruction occurs was analyzed.

naïve mice [7] = assay: Hot plate test after resiniferatoxin ablation of TRPV1+ nociceptors; type: in vivo, mouse
mice with CIPN or BCP = assay: Conditioned place preference (CPP) assay in chronic pain (CIPN and BCP) models; type: in vivo, mouse; conditions: mice with neuropathic pain (CIPN), i.t. 35 nmol
Description: as §2

[8] = system: Ifnar1+/+ and Ifnar1−/− mice; type: in vivo, mouse; conditions: i.t. IFN-α
Description: as §1, with “pipette. […]” for “pipette.”

poly(I:C)
effect on mechanical thresholds in knockout mice (naïve mice [1]; i.t. 1 μg, knockout genotypes): abolished in Ifnar1fx/fx; Nav1.8-Cre and RIG-I−/− mice
mechanical thresholds after i.t. dsDNA or dsRNA analog (naïve mice [1]; i.t. 1 μg, responsive genotypes): elevated mechanical thresholds similarly in Ifnar1fx/fx (WT), STINGgt/gt, and cGAS−/− mice

Nc1nc2c(ncn2[C@@H]2O[C@@H]3COP(=O)(O)O[C@H]4[C@@H](O)[C@H](n5cnc6c(N)ncnc65)O[C@@H]4COP(=O)(O)O[C@@H]2[C@@H]3O)c(=O)[nH]1 [2′3′-cGAMP, 2′3′ cyclic guanosine monophosphate—adenosine monophosphate]
mechanical sensory thresholds (von Frey) (naïve mice [1]; naïve mice): induced dose-dependent antinociception; also recorded: elevated mechanical thresholds

O=C(Nc1ccc(I)cc1)c1ccc([N+](=O)[O-])o1 [C-176]
mechanical sensitivity after i.t. inhibitor or neutralizing antibody (naïve mice [1]; naïve mice, i.t.): transient dose-dependent hypersensitivity
solubility [2]: poor solubility

CN1CC[C@]23c4c5ccc(O)c4O[C@H]2[C@@H](O)C=C[C@H]3[C@H]1C5 [morphine]
conditioned place preference, repeated pairing (naïve mice [3]): induces CPP
effect of naloxone on the antinociception of the substance (naïve mice [4]): reversed
intrathecal dose producing analgesia in NHPs [5]: 100 nmol

O=P(O)(O)C(O)(Cn1ccnc1)P(=O)(O)O [ZA, Zoledronic acid]
body weight ([6]; LLC model, twice i.p.): no effect on overall body weight
mice with distal bone fractures (tumor-bearing femora): 25%

C=C(C)[C@]12C[C@@H](C)[C@@]34O[C@](Cc5ccccc5)(O[C@@H]1[C@@H]3C=C(COC(=O)Cc1ccc(O)c(OC)c1)C[C@]1(O)C(=O)C(C)=C[C@@H]41)O2 [RTX]
heat sensitivity in the hot plate test (naïve mice [7]): heat insensitivity

Cn1cc(Nc2nccc(N3C[C@H]4CC[C@@H](C3)N4C(=O)[C@@H]3CC3(F)F)n2)cn1 [PF-06700841]
mechanical sensitivity after i.t. inhibitor or neutralizing antibody (naïve mice [1]; naïve mice, i.t.): induced transient, dose-dependent mechanical allodynia
effect of pretreatment on IFN-β-induced antinociception (naïve mice [1]; naïve mice, i.t., 1 μg): abolished IFN-β-induced antinociception

Clc1cccc(Cl)c1N=C1NCCN1 [clonidine]
conditioned place preference, single pairing (mice with CIPN or BCP): robust CPP

CCc1ccc(NC(=O)Nc2c[nH]c3ccccc23)cc1 [H-151]
mechanical sensitivity after i.t. inhibitor or neutralizing antibody (naïve mice [1]; naïve mice, i.t.): transient dose-dependent hypersensitivity
solubility [2]: poor solubility

IFN-α
antinociception in WT vs Ifnar1-gKO/cKO mice (naïve mice [1]; i.t.): induced transient antinociception in WT mice which was abolished in Ifnar1-gKO/cKO mice
mechanical hypersensitivity of STINGgt/gt mice (naïve mice [1]; i.t.): could transiently rescue mechanical hypersensitivity
paw withdrawal thresholds after i.t. recombinant interferon (naïve mice [1]; naïve mice, i.t.): increased paw withdrawal thresholds
paw withdrawal thresholds after i.t. recombinant interferon (naïve mice [1]; naïve mice, i.t., listed as IFN-a): induced transient, dose-dependent antinociception
mechanical hypersensitivity induced by intraplantar IFN-α [8]: could block the mechanical hypersensitivity induced by intraplantar IFN-α

Nc1nc2c(ncn2[C@@H]2O[C@@H]3COP(=O)(O)O[C@H]4[C@@H](O)[C@H](n5cnc6c(N)ncnc65)O[C@@H]4COP(=O)(O)O[C@H]3[C@H]2O)c(=O)[nH]1 [3′3′-cGAMP]
mechanical sensory thresholds (von Frey) (naïve mice [1]; naïve mice): induced dose-dependent antinociception; also recorded: elevated mechanical thresholds
acute effect on bone cancer pain ([6]; d11, 4 h after single i.p. injection): could attenuate cold allodynia or/and mechanical allodynia

IFN-β: recombinant mouse IFN-β produced in mammalian cells (PBL Assay Science, 12410-1)
antinociception in WT vs Ifnar1-gKO/cKO mice (naïve mice [1]; i.t.): induced transient antinociception in WT mice which was abolished in Ifnar1-gKO/cKO mice
mechanical hypersensitivity of STINGgt/gt mice (naïve mice [1]; i.t.): could transiently rescue mechanical hypersensitivity
paw withdrawal thresholds after i.t. recombinant interferon (naïve mice [1]; naïve mice, i.t.): induced transient, dose-dependent antinociception; also recorded: increased paw withdrawal thresholds
